Test system: yeast genes (level of expressed mRNA)
Test: DNA chip analysis of expressed mRNA of yeast genes after 2 h culture with a toxic chemical substance
Format: cell-based, Saccharomyces cerevisiae S288C
Conditions: for The level of expressed mRNA in the presence of chemical substance/ (ratio to absence of chemical substance): stress protein genes, DNA chip
Procedure: Yeast (Saccharomyces cerevtisiae S288C (α SUC2mal mel gap2 CUP1)) were cultured at 25° C. on YPD medium (yeast extract 1%, polypepton 2%, glucose 2%). One of toxic chemical substances was added to the cell at logarithmic growth phase, and the cell was further cultured for two hours. Cell was cultured without any chemical substance in the same condition, and was used as control. Concentrations of the chemical substances were defined to inhibit the growth of the yeast but not lead to death.
After the completion of cultivation, the culture was centrifuged to collect the cells. To the cells, sodium acetate buffer (50 mM sodium acetate, 10 mM EDTA, 1% SDS) was added, and the mixture was shaken at 65° C. for five minutes, followed by returning to room temperature, and obtaining the supernatant, which procedure was repeated two times. To the supernatant, ½ amount of a solution of phenol/chloroform was added, and the mixture was centrifuged to give a supernatant, which was added with an equal amount of chloroform, and the mixture was centrifuged to give a supernatant. To the supernatant, an equal amount of isopropanol containing 0.3 M sodium acetate was added, and the mixture was allowed to stand at room temperature for 30 minutes, after which the mixture was centrifuged to give a sediment of the whole RNAs. Seventy % ethanol was added to the sediment, and the mixture was again centrifuged to give a sediment, which was then dried and dissolved in water. mRNA was isolated from the whole RNAs as followings. In view of the fact that a poly A chain is attached to the 3′ terminus of mRNA, a polynucleotide having a poly T structure which was immobilized on the surface of latex beads was used to trap the mRNA, and then the mRNA was washed and eluted with spine column (Oligotex-dT30<Super>mRNA Purification Kit, Takara). Reverse transcription of the mRNA was conducted with a reverse transcriptase (Super Script II Reverse Transcriptase; catalogue No. 18064-014, GibcoBRL) using fluorescence-labeled nucleotides to give cDNAs that were introduced with Cy3-dUTP or Cy5-dUTP during the reverse transcription.
The labeled cDNAs were dissolved in TE buffer (10 mM Tris-HCl/1 mM EDTA, pH8.0), and the solution was dropped on the DNA chip containing the whole genes of yeast (DNA Chip Research Inc. Japan) so that the cDNAs were hybridized on the DNA chip at 65° C. for over 12 hours. The fluoresces intensity of the DNA chip was read with a scanner, and the ratio relative to the fluorescence intensity resulting from the absence of chemical substance was estimated as the following, which is shown in Tables 1 to 9: [formula]
In the Tables, “Intensity” indicated in the rightmost column is a value of the level of expressed mRNA of each gene in control cells as divided by the average level of the expressions of the whole genes.

## CCCCCCCCCCCCOS(=O)(=O)[O-].[Na+] [(18), sodium lauryl sulfate]
Gene YOR267C
  The level of expressed mRNA in the presence of chemical substance/absence: YOR267C: 1.0
Gene YOR325W
  The level of expressed mRNA in the presence of chemical substance/absence: YOR325W: 1.0
Gene YOR336W
  level of expressed mRNA in the presence of chemical substance/in its absence: 1.0
Gene YOR344C
  level of expressed mRNA in the presence of chemical substance/in its absence: 1.3
Gene YOR347C
  level of expressed mRNA in the presence of chemical substance/in its absence: 1.3
Gene YPL005W
  The level of expressed mRNA in the presence of chemical substance/absence: YPL005W: 1.1
Gene YPL017C
  level of expressed mRNA in the presence of chemical substance/in its absence: 0.8
Gene YPL107W, DNA chip fluorescence ratio to control without chemical, 2 hours culture with chemical, growth-inhibiting non-lethal concentration
  The level of expressed mRNA in the presence of chemical substance / the level in the absence of chemical substance, yeast gene YPL107W: 1.1
Gene YPL138C, DNA chip fluorescence ratio to control without chemical, 2 hours culture with chemical, growth-inhibiting non-lethal concentration
  The level of expressed mRNA in the presence of chemical substance / the level in the absence of chemical substance, yeast gene YPL138C: 1.1
Gene YPL150W
  The level of expressed mRNA in the presence of chemical substance/absence: YPL150W: 1.1
Gene YPL151C
  The level of expressed mRNA in the presence of chemical substance/absence: YPL151C: 1.0
Gene YPL152W
  The level of expressed mRNA in the presence of chemical substance/absence: YPL152W: 1.9
Gene YPL168W
  The level of expressed mRNA in the presence of chemical substance/absence: YPL168W: 1.2
Gene YPL180W
  The level of expressed mRNA in the presence of chemical substance/absence: YPL180W: 0.9
Gene YPL188W
  The level of expressed mRNA in the presence of chemical substance/absence: YPL188W: 0.9
Gene YPL221W
  The level of expressed mRNA in the presence of chemical substance/absence: YPL221W: 1.2
Gene YPL225W
  The level of expressed mRNA in the presence of chemical substance/absence: YPL225W: 1.7
Gene YPL249C
  The level of expressed mRNA in the presence of chemical substance/absence: YPL249C: 1.2
Gene YPL260W
  The level of expressed mRNA in the presence of chemical substance/absence: YPL260W: 1.3
Gene YPL265W
  level of expressed mRNA in the presence of chemical substance/in its absence: 0.4
Gene YPR006C
  level of expressed mRNA in the presence of chemical substance/in its absence: 2.1
Gene YPR026W
  level of expressed mRNA in the presence of chemical substance/in its absence: 1.3
Gene YPR049C
  The level of expressed mRNA in the presence of chemical substance/absence: YPR049C: 1.1
Gene YPR061C
  The level of expressed mRNA in the presence of chemical substance/absence: YPR061C: 0.9
Gene YPR093C
  The level of expressed mRNA in the presence of chemical substance/absence: YPR093C: 1.1
Gene YPR146C
  The level of expressed mRNA in the presence of chemical substance/absence: YPR146C: 1.1
Gene YPR148C
  The level of expressed mRNA in the presence of chemical substance/absence: YPR148C: 2.0
Gene YPR150W
  The level of expressed mRNA in the presence of chemical substance/absence: YPR150W: 1.0
Gene YPR158W
  The level of expressed mRNA in the presence of chemical substance/absence: YPR158W: 0.7
Gene YPR169W
  The level of expressed mRNA in the presence of chemical substance/absence: YPR169W: 1.1
Gene YPR172W
  The level of expressed mRNA in the presence of chemical substance/absence: YPR172W: 1.4
Gene YPR174C
  The level of expressed mRNA in the presence of chemical substance/absence: YPR174C: 0.9
Yeast gene YAR010C
  The level of expressed mRNA in the presence of chemical substance/The level of expressed mRNA in the absence of chemical substance: 1.0
Yeast gene YBL005W-A
  The level of expressed mRNA in the presence of chemical substance/The level of expressed mRNA in the absence of chemical substance: 1.0
Yeast gene YBL038W, mitochondria-located protein genes, 2 h culture with chemical
  The level of expressed mRNA in the presence of chemical substance/ (ratio to absence), gene YBL038W: 1.9
Yeast gene YBL041W
  The level of expressed mRNA in the presence of chemical substance/The level of expressed mRNA in the absence of chemical substance: 2.0
Yeast gene YBL043W
  The level of expressed mRNA in the presence of chemical substance/The level of expressed mRNA in the absence of chemical substance: 1.8
Yeast gene YBL078C
  The level of expressed mRNA in the presence of chemical substance/The level of expressed mRNA in the absence of chemical substance: 2.8
Yeast gene YBL093C
  The level of expressed mRNA in the presence of chemical substance/ (ratio to absence of chemical substance): 1.3
Yeast gene YBR036C, ratio of DNA chip fluorescence intensity to that without chemical substance
  The level of expressed mRNA in the presence of chemical substance/ (in its absence), gene YBR036C: 1.8
Yeast gene YBR044C
  The level of expressed mRNA in the presence of chemical substance/ (ratio to absence of chemical substance): 1.3
Yeast gene YBR122C, mitochondria-located protein genes, 2 h culture with chemical
  The level of expressed mRNA in the presence of chemical substance/ (ratio to absence), gene YBR122C: 1.5
Yeast gene YBR214W
  The level of expressed mRNA in the presence of chemical substance/The level of expressed mRNA in the absence of chemical substance: 1.2
Yeast gene YBR251W, mitochondria-located protein genes, 2 h culture with chemical
  The level of expressed mRNA in the presence of chemical substance/ (ratio to absence), gene YBR251W: 1.4
Yeast gene YBR298C, ratio of DNA chip fluorescence intensity to that without chemical substance
  The level of expressed mRNA in the presence of chemical substance/ (in its absence), gene YBR298C: 0.8
Yeast gene YCL020W
  The level of expressed mRNA in the presence of chemical substance/The level of expressed mRNA in the absence of chemical substance: 1.3
Yeast gene YCL027W
  The level of expressed mRNA in the presence of chemical substance/The level of expressed mRNA in the absence of chemical substance: 0.8
Yeast gene YCR004C
  The level of expressed mRNA in the presence of chemical substance/The level of expressed mRNA in the absence of chemical substance: 3.5
Yeast gene YCR046C, mitochondria-located protein genes, 2 h culture with chemical
  The level of expressed mRNA in the presence of chemical substance/ (ratio to absence), gene YCR046C: 1.0
Yeast gene YCR071C
  The level of expressed mRNA in the presence of chemical substance/The level of expressed mRNA in the absence of chemical substance: 1.3
Yeast gene YCR083W, mitochondria-located protein genes, 2 h culture with chemical
  The level of expressed mRNA in the presence of chemical substance/ (ratio to absence), gene YCR083W: 1.3
Yeast gene YCR083W
  The level of expressed mRNA in the presence of chemical substance/ (ratio to absence of chemical substance): 1.3
Yeast gene YCR088W
  The level of expressed mRNA in the presence of chemical substance/The level of expressed mRNA in the absence of chemical substance: 0.9
Yeast gene YDL008W
  The level of expressed mRNA in the presence of chemical substance/The level of expressed mRNA in the absence of chemical substance: 1.6
Yeast gene YDL067C, energy system protein genes, 2 h culture with the chemical, ratio to control without chemical
  The level of expressed mRNA in the presence of chemical substance/ in its absence, gene YDL067C: 1.7
Yeast gene YDL067C, mitochondria-located protein genes, 2 h culture with chemical
  The level of expressed mRNA in the presence of chemical substance/ (ratio to absence), gene YDL067C: 1.7
Yeast gene YDL078C, energy system protein genes, 2 h culture with the chemical, ratio to control without chemical
  The level of expressed mRNA in the presence of chemical substance/ in its absence, gene YDL078C: 2.0
